Data from ChEMBL document CHEMBL1138574, “Regioselective synthesis and stereochemical structure of anti-tumor active dispiro[3H-indole-3,2'-pyrrolidine-3',3''-piperidine]-2(1H),4''-diones” (2009).

Key:
Format in all cases: functional
Rattus norvegicus [1] = assay: Antiinflammatory activity in Wister albino rat assessed as inhibition of carrageenan-induced paw oedema at 50 mg/kg, ip administered 1 hr before carrageenan challenge measured after 3 hrs of induction of inflammation relative to control; settings: route intraperitoneal
[2] = Antitumor activity against human Hs 578T cells assessed as cell growth at 10 uM after 48 hrs by sulforhodamine B assay; settings: read-out: Activity
LOX IMVI = assay: Antitumor activity against human LOXIMVI cells assessed as cell growth at 10 uM after 48 hrs by sulforhodamine B assay; settings: read-out: Activity
MOLT-4 = assay: Antitumor activity against human MOLT4 cells assessed as cell growth at 10 uM after 48 hrs by sulforhodamine B assay; settings: MOLT-4, 48 h, read-out: Activity
UO-31 = assay: Antitumor activity against human UO31 cells assessed as cell growth at 10 uM after 48 hrs by sulforhodamine B assay; settings: UO-31, 48 h, read-out: Activity
SF-268 = assay: Antitumor activity against human SF268 cells assessed as cell growth at 10 uM after 48 hrs by sulforhodamine B assay; settings: SF-268, 48 h, read-out: Activity
Rattus norvegicus [3] = assay: Antiinflammatory activity in Wister albino rat assessed as inhibition of carrageenan-induced paw oedema at 50 mg/kg, ip administered 1 hr before carrageenan challenge measured after 2 hrs of induction of inflammation relative to control; settings: route intraperitoneal
NCI/ADR-RES = assay: Antitumor activity against human NCI/ADR-RES cells assessed as cell growth at 10 uM after 48 hrs by sulforhodamine B assay; settings: read-out: Activity
DU-145 = assay: Antitumor activity against human DU145 cells assessed as cell growth at 10 uM after 48 hrs by sulforhodamine B assay; settings: DU-145, 48 h, read-out: Activity
NCI-H23 = assay: Antitumor activity against human NCI-H23 cells assessed as cell growth at 10 uM after 48 hrs by sulforhodamine B assay; settings: NCI-H23, 48 h, read-out: Activity
HCT-15 = assay: Antitumor activity against human HCT15 cells assessed as cell growth at 10 uM after 48 hrs by sulforhodamine B assay; settings: HCT-15, 48 h, read-out: Activity
SNB-19 = assay: Antitumor activity against human SNB19 cells assessed as cell growth at 10 uM after 48 hrs by sulforhodamine B assay; settings: SNB-19, 48 h, read-out: Activity
Rattus norvegicus [4] = assay: Antiinflammatory activity in Wister albino rat assessed as inhibition of carrageenan-induced paw oedema at 50 mg/kg, ip administered 1 hr before carrageenan challenge measured after 1 hr of induction of inflammation relative to control; settings: route intraperitoneal
NCI-H226 = assay: Antitumor activity against human NCI-H226 cells assessed as cell growth at 10 uM after 48 hrs by sulforhodamine B assay; settings: NCI-H226, 48 h, read-out: Activity
KM12 = assay: Antitumor activity against human KM12 cells assessed as cell growth at 10 uM after 48 hrs by sulforhodamine B assay; settings: KM12, 48 h, read-out: Activity
SF-539 = assay: Antitumor activity against human SF539 cells assessed as cell growth at 10 uM after 48 hrs by sulforhodamine B assay; settings: SF-539, 48 h, read-out: Activity
CCRF-CEM = assay: Antitumor activity against human CCRF-CEM cells assessed as cell growth at 10 uM after 48 hrs by sulforhodamine B assay; settings: read-out: Activity
IGROV-1 = assay: Antitumor activity against human IGROV1 cells assessed as cell growth at 10 uM after 48 hrs by sulforhodamine B assay; settings: IGROV-1, 48 h, read-out: Activity
SW-620 = assay: Antitumor activity against human SW620 cells assessed as cell growth at 10 uM after 48 hrs by sulforhodamine B assay; settings: SW-620, 48 h, read-out: Activity
SK-MEL-28 = assay: Antitumor activity against human SK-MEL-28 cells assessed as cell growth at 10 uM after 48 hrs by sulforhodamine B assay; settings: SK-MEL-28, 48 h, read-out: Activity
HCT-116 = assay: Antitumor activity against human HCT116 cells assessed as cell growth at 10 uM after 48 hrs by sulforhodamine B assay; settings: HCT-116, 48 h, read-out: Activity
RXF 393 = assay: Antitumor activity against human RXF393 cells assessed as cell growth at 10 uM after 48 hrs by sulforhodamine B assay; settings: RXF 393, 48 h, read-out: Activity
COLO 205 = assay: Antitumor activity against human COLO205 cells assessed as cell growth at 10 uM after 48 hrs by sulforhodamine B assay; settings: COLO 205, 48 h, read-out: Activity
Rattus norvegicus [5] = assay: Antiinflammatory activity in Wister albino rat assessed as inhibition of carrageenan-induced paw oedema at 50 mg/kg, ip administered 1 hr before carrageenan challenge measured after 24 hrs of induction of inflammation relative to control; settings: route intraperitoneal
UACC-257 = assay: Antitumor activity against human UACC257 cells assessed as cell growth at 10 uM after 48 hrs by sulforhodamine B assay; settings: UACC-257, 48 h, read-out: Activity
ACHN = assay: Antitumor activity against human ACHN cells assessed as cell growth at 10 uM after 48 hrs by sulforhodamine B assay; settings: read-out: Activity
SN12C = assay: Antitumor activity against human SN12C cells assessed as cell growth at 10 uM after 48 hrs by sulforhodamine B assay; settings: read-out: Activity
MDA-MB-231 = assay: Antitumor activity against human MDA-MB-231 cells assessed as cell growth at 10 uM after 48 hrs by sulforhodamine B assay; settings: MDA-MB-231, 48 h, read-out: Activity
CAKI-1 = assay: Antitumor activity against human Caki1 cells assessed as cell growth at 10 uM after 48 hrs by sulforhodamine B assay; settings: CAKI-1, 48 h, read-out: Activity
BT-549 = assay: Antitumor activity against human BT549 cells assessed as cell growth at 10 uM after 48 hrs by sulforhodamine B assay; settings: BT-549, 48 h, read-out: Activity
HL-60(TB) = assay: Antitumor activity against human HL-60(TB) cells assessed as cell growth at 10 uM after 48 hrs by sulforhodamine B assay; settings: HL-60, 48 h, read-out: Activity
OVCAR-4 = assay: Antitumor activity against human OVCAR4 cells assessed as cell growth at 10 uM after 48 hrs by sulforhodamine B assay; settings: OVCAR-4, 48 h, read-out: Activity
SK-MEL-2 = assay: Antitumor activity against human SK-MEL-2 cells assessed as cell growth at 10 uM after 48 hrs by sulforhodamine B assay; settings: SK-MEL-2, 48 h, read-out: Activity
786-0 = assay: Antitumor activity against human 786-0 cells assessed as cell growth at 10 uM after 48 hrs by sulforhodamine B assay; settings: 786-0, 48 h, read-out: Activity
NCI-H322M = assay: Antitumor activity against human NCI-H322M cells assessed as cell growth at 10 uM after 48 hrs by sulforhodamine B assay; settings: read-out: Activity
[6] = Antitumor activity against human […] cells assessed as cell growth at 10 uM after 48 hrs by sulforhodamine B assay; settings: read-out: Activity

## CN1C/C(=C\c2ccc(-c3cccs3)cc2)C(=O)[C@]2(C1)[C@@H](c1ccc(-c3cccs3)cc1)CN(C)[C@@]21C(=O)N(C)c2ccccc21
Rattus norvegicus [1]
  inhibition in vivo at 50 mg/kg: 73.9%
[2]
  growth at 10 µM: 79.3%
LOX IMVI
  growth at 10 µM: 65%
MOLT-4
  growth at 10 µM: 27.2%
UO-31
  growth at 10 µM: 45.4%
SF-268
  growth at 10 µM: 72.4%
Rattus norvegicus [3]
  inhibition in vivo at 50 mg/kg: 68.3%
NCI/ADR-RES
  growth at 10 µM: 37.7%
DU-145
  growth at 10 µM: 67.4%
NCI-H23
  growth at 10 µM: 26.1%
HCT-15
  growth at 10 µM: 62.1%
SNB-19
  growth at 10 µM: 65.3%
Rattus norvegicus [4]
  inhibition in vivo at 50 mg/kg: 84.7%
NCI-H226
  growth at 10 µM: 58%
KM12
  growth at 10 µM: 45.2%
SF-539
  growth at 10 µM: 75.4%
CCRF-CEM
  growth at 10 µM: 56.4%
IGROV-1
  growth at 10 µM: 81.4%
SW-620
  growth at 10 µM: 53.8%
SK-MEL-28
  growth at 10 µM: 80%
HCT-116
  growth at 10 µM: 30.6%
RXF 393
  growth at 10 µM: 55.6%
COLO 205
  growth at 10 µM: 69%
Rattus norvegicus [5]
  inhibition in vivo at 50 mg/kg: 74.3%
UACC-257
  growth at 10 µM: 64.6%
ACHN
  growth at 10 µM: 56.5%
SN12C
  growth at 10 µM: 64.3%
MDA-MB-231
  growth at 10 µM: 52.4%
CAKI-1
  growth at 10 µM: 57.2%
BT-549
  growth at 10 µM: 79.7%
HL-60(TB)
  growth at 10 µM: 22.6%
OVCAR-4
  growth at 10 µM: 37.3%
SK-MEL-2
  growth at 10 µM: 68.6%
786-0
  growth at 10 µM: 65.8%
NCI-H322M
  growth at 10 µM: 75%
[6]
  growth at 10 µM: 10.6%

## COc1ccc(/C=C2\CN(C)C[C@@]3(C2=O)[C@@H](c2ccccc2)CN(C)[C@@]32C(=O)Nc3ccccc32)cc1
Rattus norvegicus [1]
  inhibition in vivo at 50 mg/kg: 76.5%
[2]
  growth at 10 µM: 74.7%
LOX IMVI
  growth at 10 µM: 65.3%
MOLT-4
  growth at 10 µM: 17.2%
UO-31
  growth at 10 µM: 40.4%
SF-268
  growth at 10 µM: 61.8%
Rattus norvegicus [3]
  inhibition in vivo at 50 mg/kg: 76.4%
NCI/ADR-RES
  growth at 10 µM: 36.5%
DU-145
  growth at 10 µM: 70.3%
NCI-H23
  growth at 10 µM: 50.4%
HCT-15
  growth at 10 µM: 50.8%
SNB-19
  growth at 10 µM: 61.6%
Rattus norvegicus [4]
  inhibition in vivo at 50 mg/kg: 80.1%
NCI-H226
  growth at 10 µM: 63%
KM12
  growth at 10 µM: 37.7%
SF-539
  growth at 10 µM: 74%
CCRF-CEM
  growth at 10 µM: 45.4%
IGROV-1
  growth at 10 µM: 79.4%
SW-620
  growth at 10 µM: 47.8%
SK-MEL-28
  growth at 10 µM: 76.3%
HCT-116
  growth at 10 µM: 26.8%
RXF 393
  growth at 10 µM: 57.8%
COLO 205
  growth at 10 µM: 67.4%
Rattus norvegicus [5]
  inhibition in vivo at 50 mg/kg: 52.9%
UACC-257
  growth at 10 µM: 70.3%
ACHN
  growth at 10 µM: 49.1%
SN12C
  growth at 10 µM: 58.4%
MDA-MB-231
  growth at 10 µM: 59.4%
CAKI-1
  growth at 10 µM: 54.3%
BT-549
  growth at 10 µM: 56.3%
HL-60(TB)
  growth at 10 µM: 21.5%
OVCAR-4
  growth at 10 µM: 52.7%
SK-MEL-2
  growth at 10 µM: 60.7%
786-0
  growth at 10 µM: 57.2%
NCI-H322M
  growth at 10 µM: 79.7%
[6]
  growth at 10 µM: 20.7%

## CN1C/C(=C\c2ccc(Cl)cc2)C(=O)[C@]2(C1)[C@@H](c1ccc(Cl)cc1)CN(C)[C@@]21C(=O)Nc2ccccc21
Rattus norvegicus [1]
  inhibition in vivo at 50 mg/kg: 49.6%
[2]
  growth at 10 µM: 79.7%
LOX IMVI
  growth at 10 µM: 72.3%
MOLT-4
  growth at 10 µM: 37.4%
UO-31
  growth at 10 µM: 43.2%
SF-268
  growth at 10 µM: 60.6%
Rattus norvegicus [3]
  inhibition in vivo at 50 mg/kg: 63%
NCI/ADR-RES
  growth at 10 µM: 62.1%
DU-145
  growth at 10 µM: 83.8%
NCI-H23
  growth at 10 µM: 44.8%
HCT-15
  growth at 10 µM: 68.5%
SNB-19
  growth at 10 µM: 76.5%
Rattus norvegicus [4]
  inhibition in vivo at 50 mg/kg: 83.1%
NCI-H226
  growth at 10 µM: 64.4%
KM12
  growth at 10 µM: 64.2%
SF-539
  growth at 10 µM: 83.3%
CCRF-CEM
  growth at 10 µM: 51.3%
IGROV-1
  growth at 10 µM: 81.8%
SW-620
  growth at 10 µM: 57.7%
SK-MEL-28
  growth at 10 µM: 101%
HCT-116
  growth at 10 µM: 45.9%
RXF 393
  growth at 10 µM: 67.5%
COLO 205
  growth at 10 µM: 92.7%
Rattus norvegicus [5]
  inhibition in vivo at 50 mg/kg: 38.2%
UACC-257
  growth at 10 µM: 79.3%
ACHN
  growth at 10 µM: 63.6%
SN12C
  growth at 10 µM: 64.1%
MDA-MB-231
  growth at 10 µM: 74.9%
CAKI-1
  growth at 10 µM: 45.8%
BT-549
  growth at 10 µM: 63.9%
HL-60(TB)
  growth at 10 µM: 41.6%
OVCAR-4
  growth at 10 µM: 49.6%
SK-MEL-2
  growth at 10 µM: 76.2%
786-0
  growth at 10 µM: 71.8%
NCI-H322M
  growth at 10 µM: 68.7%
[6]
  growth at 10 µM: 38.5%
